Experimental data: patent US20250073217A1 (priority 2022, published 2025)
Where two headings read alike, the source gives them in different places.

What was measured:
κ (KOP) = κ (KOP) (Rattus norvegicus, UniProt P34975); type: binding
μ (MOP) (h) [1] = biological target: T1, μ (MOP) (h) (Homo sapiens, UniProt P35372); type: cell-based
α2B(h) = biological target: T2, α2B(h) (Homo sapiens, UniProt P18089); type: binding
T2 sequence (P18089 1-450): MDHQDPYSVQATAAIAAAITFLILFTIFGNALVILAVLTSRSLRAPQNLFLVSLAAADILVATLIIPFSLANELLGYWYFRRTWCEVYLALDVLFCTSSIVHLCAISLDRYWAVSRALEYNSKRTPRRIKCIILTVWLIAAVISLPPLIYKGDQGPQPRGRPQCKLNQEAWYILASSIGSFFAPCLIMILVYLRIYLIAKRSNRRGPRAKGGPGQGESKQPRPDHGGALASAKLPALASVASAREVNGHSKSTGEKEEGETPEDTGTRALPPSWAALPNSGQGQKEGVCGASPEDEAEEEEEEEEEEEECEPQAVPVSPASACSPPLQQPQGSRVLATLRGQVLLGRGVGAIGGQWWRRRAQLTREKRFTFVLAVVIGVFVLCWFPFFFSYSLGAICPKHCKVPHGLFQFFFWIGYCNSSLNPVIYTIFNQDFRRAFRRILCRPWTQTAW

CYP2B6 [2] = details: human hepatocytes, 72 hr, at 100 μM
[3] = Brain Tissue Binding, equilibrium dialysis, mouse; details: fraction unbound could not be determined
CYP1A2 [4] = details: human hepatocytes, 72 hr, 0.4-100 μM, any concentration tested
CD-1 mice [5] = test: Mice conditioned place preference (CPP) chamber test; type: in vivo; details: Compound 1 10 mg/kg IP, 10 minutes later Morphine 10 mg/kg SC, versus Morphine alone; FIG. 1
CD-1 mice [6] = test: Mouse Tail Flick Test; type: in vivo; details: compound 1 10 mg/kg IP, 10 minutes later Morphine 10 mg/kg SC, versus Morphine alone; FIGS. 2A-2C
Caco-2 cells = test: Caco-2 Permeability (A-B or Bi-directional)
[7] = system: L-DOPA induced dyskinesias; test: L-DOPA induced dyskinesias, Primate in vivo model
plasma proteins = test: Binding to plasma proteins; type: in vitro ADME
[8] = Bioavailability and Stability; type: in vitro ADME
Description: Bioavailability and Stability: Compounds of the invention were studied in detail, using several parameters to evaluate bioavailability and stability.

CYP3A4 [9] = biological target: T3, CYP3A4 (Homo sapiens, UniProt P08684); details: 0.1 μM-25 μM, human liver microsomes, substrate testosterone
T3 sequence (P08684 whole entry): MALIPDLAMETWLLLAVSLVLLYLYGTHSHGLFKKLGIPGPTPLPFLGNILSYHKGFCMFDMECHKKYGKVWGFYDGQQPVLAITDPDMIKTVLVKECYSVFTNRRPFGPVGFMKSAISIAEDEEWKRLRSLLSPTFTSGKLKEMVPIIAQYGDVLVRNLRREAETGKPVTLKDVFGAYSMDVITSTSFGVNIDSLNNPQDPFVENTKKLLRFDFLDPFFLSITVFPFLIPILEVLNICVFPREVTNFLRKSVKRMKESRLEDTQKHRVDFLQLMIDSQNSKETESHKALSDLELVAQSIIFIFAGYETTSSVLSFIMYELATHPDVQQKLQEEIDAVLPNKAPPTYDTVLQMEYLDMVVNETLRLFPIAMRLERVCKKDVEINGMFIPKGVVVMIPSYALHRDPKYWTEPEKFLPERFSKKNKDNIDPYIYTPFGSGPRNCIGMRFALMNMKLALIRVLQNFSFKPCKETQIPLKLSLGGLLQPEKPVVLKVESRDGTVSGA

CYP2C8 = CYP2C8 (Homo sapiens, UniProt P10632); test: CYP2C8 Inhibition, human liver microsomes, paclitaxel; details: 0.1 μM-25 μM
Sequence of CYP2C8 (P10632 whole entry): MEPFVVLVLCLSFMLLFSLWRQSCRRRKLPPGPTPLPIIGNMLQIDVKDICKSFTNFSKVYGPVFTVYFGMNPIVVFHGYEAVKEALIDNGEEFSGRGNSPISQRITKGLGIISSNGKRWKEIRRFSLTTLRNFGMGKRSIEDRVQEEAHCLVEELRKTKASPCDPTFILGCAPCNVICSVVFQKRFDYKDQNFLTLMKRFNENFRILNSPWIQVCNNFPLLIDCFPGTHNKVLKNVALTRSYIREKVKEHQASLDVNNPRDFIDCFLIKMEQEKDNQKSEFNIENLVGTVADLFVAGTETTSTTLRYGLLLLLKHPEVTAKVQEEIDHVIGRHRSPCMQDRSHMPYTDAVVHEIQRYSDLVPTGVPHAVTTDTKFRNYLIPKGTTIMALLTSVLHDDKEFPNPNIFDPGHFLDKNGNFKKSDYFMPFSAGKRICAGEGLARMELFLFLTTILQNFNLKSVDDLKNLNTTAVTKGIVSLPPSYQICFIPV

hERG potassium channel = hERG potassium channel (Homo sapiens, UniProt Q12809); test: hERG Channel Inhibition (IC50 Determination), IonWorks automated patch clamp, CHO cells
Sequence of hERG potassium channel (Q12809 whole entry): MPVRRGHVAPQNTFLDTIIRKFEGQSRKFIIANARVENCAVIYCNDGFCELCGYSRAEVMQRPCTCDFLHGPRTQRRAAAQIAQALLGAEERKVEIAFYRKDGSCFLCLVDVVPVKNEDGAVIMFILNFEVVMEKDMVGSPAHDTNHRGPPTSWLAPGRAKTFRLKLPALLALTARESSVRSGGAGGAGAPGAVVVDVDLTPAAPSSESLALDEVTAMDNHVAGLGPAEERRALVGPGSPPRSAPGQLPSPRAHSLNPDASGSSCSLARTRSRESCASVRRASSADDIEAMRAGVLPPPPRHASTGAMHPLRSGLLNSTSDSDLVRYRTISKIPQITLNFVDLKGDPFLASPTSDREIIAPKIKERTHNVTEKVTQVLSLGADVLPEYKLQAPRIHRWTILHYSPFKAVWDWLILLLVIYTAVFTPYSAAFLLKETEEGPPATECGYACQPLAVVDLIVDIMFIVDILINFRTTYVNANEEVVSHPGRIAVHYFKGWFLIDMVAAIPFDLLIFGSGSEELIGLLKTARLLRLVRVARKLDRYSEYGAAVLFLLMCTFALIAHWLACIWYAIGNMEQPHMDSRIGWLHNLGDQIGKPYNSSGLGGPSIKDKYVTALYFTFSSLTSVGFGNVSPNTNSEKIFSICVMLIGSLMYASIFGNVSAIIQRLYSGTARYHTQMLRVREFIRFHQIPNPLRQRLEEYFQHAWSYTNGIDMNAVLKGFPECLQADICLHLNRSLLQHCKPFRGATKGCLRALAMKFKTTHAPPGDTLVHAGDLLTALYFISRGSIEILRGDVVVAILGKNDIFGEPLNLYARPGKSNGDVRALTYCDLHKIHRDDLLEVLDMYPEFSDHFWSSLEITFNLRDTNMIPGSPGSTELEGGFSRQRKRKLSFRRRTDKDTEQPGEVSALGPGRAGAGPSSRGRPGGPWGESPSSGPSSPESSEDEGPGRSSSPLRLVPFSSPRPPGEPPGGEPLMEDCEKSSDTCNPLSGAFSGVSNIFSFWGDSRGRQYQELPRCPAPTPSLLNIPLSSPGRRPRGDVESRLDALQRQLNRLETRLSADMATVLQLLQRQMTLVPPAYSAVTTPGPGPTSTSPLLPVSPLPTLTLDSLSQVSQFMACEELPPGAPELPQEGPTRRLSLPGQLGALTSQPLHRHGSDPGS

CYP3A4 [10] = biological target: T3, CYP3A4; details: 0.1 μM-25 μM, human liver microsomes, substrate midazolam
animal models = test: Toxicity in animal models; type: in vivo; details: many animal models, even at high concentrations
Description: Toxicity: The Compound 1 was studied for its toxicity in many animal models.

[11] = system: L-DOPA induced dyskinesias; test: L-DOPA induced dyskinesias, Rodent in vivo model
CYP2D6 = biological target: T4, CYP2D6 (Homo sapiens, UniProt P10635); test: Time Dependent Inhibition of CYP2D6 (Dextromethorphan; IC50 Shift); type: in vitro ADME; details: for CYP2D6 inhibition: at 25 μM
T4 construct: from tissue
T4 sequence (P10635 whole entry): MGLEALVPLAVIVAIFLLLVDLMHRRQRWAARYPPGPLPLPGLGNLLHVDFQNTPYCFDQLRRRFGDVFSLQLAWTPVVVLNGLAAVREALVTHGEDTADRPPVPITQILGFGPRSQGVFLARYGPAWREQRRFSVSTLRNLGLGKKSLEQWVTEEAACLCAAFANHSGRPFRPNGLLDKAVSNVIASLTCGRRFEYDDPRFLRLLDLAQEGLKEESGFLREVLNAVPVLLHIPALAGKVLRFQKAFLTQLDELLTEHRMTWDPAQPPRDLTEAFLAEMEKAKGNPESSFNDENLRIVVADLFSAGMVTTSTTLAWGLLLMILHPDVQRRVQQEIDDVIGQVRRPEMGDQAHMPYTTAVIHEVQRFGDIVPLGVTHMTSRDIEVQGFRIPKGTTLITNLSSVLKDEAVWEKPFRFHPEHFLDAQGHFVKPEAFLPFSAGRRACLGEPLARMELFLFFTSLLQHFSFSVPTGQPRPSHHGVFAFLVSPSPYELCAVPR
Protocol: The probe substrate dextromethorphan (5 μM) and NADPH (1 mM) were then added (final DMSO concentration 0.3%) and the samples incubated for 5 min at 37° C. The selective time dependent CYP2D6 inhibitor, paroxetine, was screened alongside the test compounds as a positive control. The reactions were terminated by the addition of an aliquot of the incubation into methanol. The samples were centrifuged at 2500 rpm for 30 min at 4° C., and aliquots of the supernatant are diluted with formic acid in deionised water (final concentration 0.1%) containing internal standard prior to analysis of dextrorphan by LC-MS/MS.

MDR1-MDCK cells = test: MDR1-MDCK Permeability and Identification of P-gp Substrate (Bi-directional); type: in vitro ADME, canine; details: for efflux ratio: minus inhibitor (absence of cyclosporin A)
Protocol: MDR1-MDCK Permeability and Identification of P-gp Substrate (Bi-directional): Madin-Darby canine kidney (MDCK) cells are an epithelial cell line of canine kidney origin. These cells can be stably transfected to express active P-glycoprotein (MDR1-MDCK) and are ideal for studying drug efflux. Test compound was added to either the apical or basolateral side of a confluent monolayer of MDR1-MDCK cells and permeability was measured by monitoring the appearance of the test compound on the opposite side of the monolayer using LC-MS/MS. The efflux ratio (ER) was calculated from the ratio of B-A and A-B permeabilities. Experiments were performed in the absence and presence of a P-glycoprotein (P-gp) inhibitor (cyclosporin A (10 μM)) to determine whether the compound was subject to P-gp mediated efflux.
Experimental Procedure: MDR1-MDCK cells obtained from the NIH (Rockville, MD, USA) were used between passage numbers 6-30. Cells were seeded onto Millipore Multiscreen Transwell plates at 3.4×10^5 cells/cm^2. The cells were cultured in DMEM and media was changed on day 3. On day 4 the permeability study was performed. Cell culture and assay incubations were carried out at 37° C. in an atmosphere of 5% CO2 with a relative humidity of 95%. […]
The dosing solutions were prepared by diluting test compound with assay buffer to give a final test compound concentration of 10 μM (final DMSO concentration of 1% v/v). […] Test compound permeability was measured on two occasions, in the absence and in the presence of a P-gp inhibitor on both sides of the monolayer. […]
For assessment of A-B permeability. […] Test compound permeability was assessed in duplicate. […] Test and control compounds were quantified by LC-MS/MS cassette analysis using an 8-point calibration with appropriate dilution of the samples. […] The starting concentration (C0) was determined from the dosing solution and the experimental recovery calculated from C0 and both apical and basolateral compartment concentrations. […]

CYP2B6 [12] = biological target: CYP2B6 (Homo sapiens, UniProt P20813); details: 0.1 μM-25 μM, human liver microsomes
[13] = Brain Tissue Binding, equilibrium dialysis, rat; details: brain homogenate
CYP2C9 = CYP2C9 (Homo sapiens, UniProt P11712); test: CYP2C9 Inhibition, human liver microsomes, tolbutamide; details: 0.1 μM-25 μM
Sequence of CYP2C9 (P11712 whole entry): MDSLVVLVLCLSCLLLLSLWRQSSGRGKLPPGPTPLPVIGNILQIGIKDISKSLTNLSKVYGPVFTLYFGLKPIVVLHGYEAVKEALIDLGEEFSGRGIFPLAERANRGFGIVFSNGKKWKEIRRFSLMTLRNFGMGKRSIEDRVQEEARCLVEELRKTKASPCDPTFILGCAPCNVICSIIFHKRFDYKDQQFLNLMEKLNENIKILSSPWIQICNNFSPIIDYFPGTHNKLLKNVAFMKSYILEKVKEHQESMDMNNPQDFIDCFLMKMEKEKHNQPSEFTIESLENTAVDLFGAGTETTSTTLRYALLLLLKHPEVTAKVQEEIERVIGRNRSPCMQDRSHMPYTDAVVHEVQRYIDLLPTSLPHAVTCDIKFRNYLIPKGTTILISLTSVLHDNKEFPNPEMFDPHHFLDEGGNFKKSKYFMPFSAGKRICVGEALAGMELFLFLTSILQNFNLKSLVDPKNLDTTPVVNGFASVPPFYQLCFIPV

CYP3A4 [14] = details: human hepatocytes, 72 hr, 0.4-100 μM, any concentration tested
CYP1A2 [15] = biological target: CYP1A2 (Homo sapiens, UniProt P05177); details: 0.1 μM-25 μM, human liver microsomes
Sequence of CYP1A2 (Homo sapiens, UniProt P05177) (P05177 whole entry): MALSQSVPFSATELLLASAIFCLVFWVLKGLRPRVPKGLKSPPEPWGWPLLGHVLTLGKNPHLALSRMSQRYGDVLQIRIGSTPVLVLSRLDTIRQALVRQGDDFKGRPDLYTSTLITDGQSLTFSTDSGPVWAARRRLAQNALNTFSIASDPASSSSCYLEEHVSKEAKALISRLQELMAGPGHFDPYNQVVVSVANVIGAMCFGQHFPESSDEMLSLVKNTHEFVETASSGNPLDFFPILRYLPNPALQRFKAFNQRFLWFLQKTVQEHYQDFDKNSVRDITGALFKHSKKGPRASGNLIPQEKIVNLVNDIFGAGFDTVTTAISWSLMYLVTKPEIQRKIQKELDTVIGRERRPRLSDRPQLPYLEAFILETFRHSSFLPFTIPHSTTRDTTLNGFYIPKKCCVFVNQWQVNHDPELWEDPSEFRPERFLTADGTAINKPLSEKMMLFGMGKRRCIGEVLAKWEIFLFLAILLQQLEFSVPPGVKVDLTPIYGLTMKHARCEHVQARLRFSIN

μ (MOP) (h) [16] = biological target: T1, μ (MOP) (h); type: binding
δ2 (DOP) (h) = δ2 (DOP) (h) (Homo sapiens, UniProt P41143); type: binding
Sequence of δ2 (DOP) (h) (P41143 whole entry): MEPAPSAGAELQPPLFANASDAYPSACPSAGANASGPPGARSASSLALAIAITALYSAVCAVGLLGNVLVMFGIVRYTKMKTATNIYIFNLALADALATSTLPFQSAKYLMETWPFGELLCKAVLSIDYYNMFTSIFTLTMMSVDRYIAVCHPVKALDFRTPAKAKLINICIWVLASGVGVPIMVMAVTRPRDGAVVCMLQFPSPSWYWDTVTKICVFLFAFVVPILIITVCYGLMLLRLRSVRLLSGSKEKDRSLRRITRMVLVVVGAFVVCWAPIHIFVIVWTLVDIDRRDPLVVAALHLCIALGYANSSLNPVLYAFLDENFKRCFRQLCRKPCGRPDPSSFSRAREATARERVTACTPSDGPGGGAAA

Sequence of κ (KOP) (P34975 whole entry): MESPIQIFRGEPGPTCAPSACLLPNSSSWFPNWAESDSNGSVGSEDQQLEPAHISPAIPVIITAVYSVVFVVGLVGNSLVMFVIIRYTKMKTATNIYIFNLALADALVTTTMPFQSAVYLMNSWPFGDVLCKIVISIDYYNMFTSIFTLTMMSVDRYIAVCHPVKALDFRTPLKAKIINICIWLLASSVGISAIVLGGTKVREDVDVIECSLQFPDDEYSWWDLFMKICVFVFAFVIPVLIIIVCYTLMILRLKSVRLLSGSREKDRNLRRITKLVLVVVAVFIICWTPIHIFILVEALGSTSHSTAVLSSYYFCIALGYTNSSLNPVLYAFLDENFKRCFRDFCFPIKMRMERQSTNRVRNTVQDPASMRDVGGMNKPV
T1 sequence (P35372 whole entry): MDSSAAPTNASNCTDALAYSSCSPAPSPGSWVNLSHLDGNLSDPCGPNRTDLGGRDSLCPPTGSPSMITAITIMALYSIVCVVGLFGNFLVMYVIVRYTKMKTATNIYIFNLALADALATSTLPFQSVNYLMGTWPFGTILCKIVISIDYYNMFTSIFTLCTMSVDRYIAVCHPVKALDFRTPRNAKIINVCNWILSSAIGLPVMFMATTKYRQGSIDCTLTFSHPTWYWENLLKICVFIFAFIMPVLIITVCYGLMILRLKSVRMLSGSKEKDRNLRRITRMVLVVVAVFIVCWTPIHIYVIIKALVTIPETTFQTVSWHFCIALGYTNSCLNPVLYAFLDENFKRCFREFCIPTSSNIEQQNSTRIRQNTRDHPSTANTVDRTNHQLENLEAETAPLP

SMILES: O=C(CCCCCCCBr)NC1CCN(CCc2ccccc2)CC1 [8-bromo-N-(1-phenethylpiperidin-4-yl)octanamide]
- nH (κ (KOP)): 0.5
- nH (μ (MOP) (h) [1]): 0.4
- nH (α2B(h)): 0.8

SMILES: CCC(=O)NC1CCN(CCc2ccccc2)CC1 [Compound 1, N-(1-phenethylpiperidin-4-yl)propionamide]
- CYP2B6 mRNA expression (CYP2B6 [2]): slight, yet statistically significant decrease
- binding in mouse [3]: no binding at all could be detected
- CYP1A2 mRNA expression (CYP1A2 [4]): didn't cause a statistically significant change
- time in chamber associated with morphine administration (CPP) (CD-1 mice [5]): significantly less time
- analgesic property (tail flick, 52° C. water) (CD-1 mice [6]): almost identical analgesic property compared to morphine alone
- permeability in the Caco-2 assay (Caco-2 cells; 10 μM, pH gradient 6.8/7.4, 120 min): highly permeable in both directions
- efflux ratio (Caco-2 cells; pH gradient (pH 6.8/7.4)): 2.70
- inhibition of L-DOPA induced dyskinesias [7]: significant inhibition
- binding to plasma proteins (plasma proteins): weak, or no noticeable binding
- bioavailability [8]: highly bioavailable
- CYP3A4 inhibition (testosterone) (CYP3A4 [9]): No significant inhibition
- CYP2C8 inhibition (CYP2C8): No significant inhibition
- IC50 (hERG potassium channel): > 25 µM
- CYP3A4 inhibition (midazolam) (CYP3A4 [10]): No significant inhibition
- toxicity (animal models): virtually no toxicity
- inhibition of L-DOPA induced dyskinesias ([11]; Rodent in vivo model): significant inhibition
- effectiveness versus amantadine against L-dopa-induced dyskinesia ([11]; comparison with amantadine, model not specified (Rodent and Primate models named)): significantly more effective than amantadine
- IC50 (CYP2D6; 0 minute incubation): > 25 µM
- time-dependent CYP2D6 inhibition (CYP2D6; IC50 shift, 30 min pre-incubation ± NADPH): no evidence of time-dependent CYP2D6 inhibition
- CYP2D6 inhibition (CYP2D6; 0 minute incubation): approximately 40%
- CYP2D6 inhibition (CYP2D6; 30 minute plus NADPH incubation): approximately 40%
- permeability in the MDCK assay (MDR1-MDCK cells; 10 μM, pH 7.4, 60 min): highly permeable
- efflux ratio (MDR1-MDCK cells): 1.48
- CYP2B6 inhibition (CYP2B6 [12]): No significant inhibition
- fraction unbound at 2 hr, 5 μM [13]: 0.249
- CYP2C9 inhibition (CYP2C9): No significant inhibition
- CYP3A4 mRNA expression (CYP3A4 [14]): didn't cause a statistically significant change
- CYP1A2 inhibition (CYP1A2 [15]): No significant inhibition

SMILES: CCC(=O)NC1CCN(CCC(=O)OC)CC1 [Methyl 3-(4-propionamidopiperidin-1-yl) propanoate]
- nH (μ (MOP) (h) [16]): 0.5
- nH (κ (KOP)): 0.8
- nH (α2B(h)): 1

SMILES: CCC(=O)NC1CCN(CCc2cccs2)CC1 [N-(1-(2-(thiophen-2-yl)ethyl)piperidin-4-yl)propionamide]
- nH (δ2 (DOP) (h)): 0.9
- nH (κ (KOP)): 0.6
- nH (μ (MOP) (h) [1]): 0.6
- nH (α2B(h)): 1.2

SMILES: O=C(NC1CCN(CCc2ccccc2)CC1)c1ccccc1 [N-(1-phenethylpiperidin-4-yl)benzamide]
- nH (δ2 (DOP) (h)): 0.7
- nH (μ (MOP) (h) [16]): 0.9
- nH (κ (KOP)): 0.6
- nH (α2B(h)): 1.3

SMILES: O=C(NC1CCN(CCc2ccccc2)CC1)c1ccco1 [N-(1-phenethylpiperidin-4-yl)furan-2-carboxamide]
- nH (δ2 (DOP) (h)): 1
- nH (μ (MOP) (h) [16]): 0.8
- nH (κ (KOP)): 1.1
- nH (α2B(h)): 0.7

SMILES: O=C(NC1CCN(CCc2ccccc2)CC1)c1ccoc1 [N-(1-phenethylpiperidin-4-yl)furan-3-carboxamide]
- nH (δ2 (DOP) (h)): 1
- nH (μ (MOP) (h) [16]): 0.8
- nH (κ (KOP)): 1.1
- nH (α2B(h)): 0.7

SMILES: COc1cc2nc(N3CCN(C(=O)c4ccco4)CC3)nc(N)c2cc1OC [prazosin, reference compound]
- efflux ratio (MDR1-MDCK cells): showing efflux
